Reference: PubChem BioAssay (NCI)
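Following 48 hours of exposure in 96-well plates, responses at five concentrations were used to interpolate endpoints linearly. GI50: concentration for 50% inhibition of growth. TGI marks complete inhibition of growth.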

Experiments:
Assay in all cases: NCI-60 cell line screen, 48 h
MDA-MB-435 = test system: MDA-MB-435
IGROV1 ovarian = test system: IGROV1 ovarian
SW-620 colon = test system: SW-620 colon
RPMI-8226 leukemia = test system: RPMI-8226 leukemia
SF-295 CNS = test system: SF-295 CNS
MDA-MB-231 breast = test system: MDA-MB-231 breast
M14 melanoma = test system: M14 melanoma
OVCAR-4 ovarian = test system: OVCAR-4 ovarian
HCT-15 colon = test system: HCT-15 colon
NCI-H522 lung = test system: NCI-H522 lung
SK-OV-3 ovarian = test system: SK-OV-3 ovarian
CAKI-1 renal = test system: CAKI-1 renal
NCI-H226 lung = test system: NCI-H226 lung
NCI/ADR-RES ovarian = test system: NCI/ADR-RES ovarian
SK-MEL-28 melanoma = test system: SK-MEL-28 melanoma
DU-145 prostate = test system: DU-145 prostate
HOP-62 NSCLC = test system: HOP-62 NSCLC
COLO 205 colon = test system: COLO 205 colon
NCI-H23 lung = test system: NCI-H23 lung
U251 CNS = test system: U251 CNS
SF-539 CNS = test system: SF-539 CNS
LOX IMVI melanoma = test system: LOX IMVI melanoma
ACHN renal = test system: ACHN renal
SNB-75 CNS = test system: SNB-75 CNS
TK-10 renal = test system: TK-10 renal
T-47D breast = test system: T-47D breast
UO-31 renal = test system: UO-31 renal
SF-268 CNS = test system: SF-268 CNS
RXF 393 renal = test system: RXF 393 renal
KM12 colon = test system: KM12 colon
HOP-92 NSCLC = test system: HOP-92 NSCLC
MCF7 breast = test system: MCF7 breast
PC-3 prostate = test system: PC-3 prostate
UACC-62 melanoma = test system: UACC-62 melanoma
SNB-19 CNS = test system: SNB-19 CNS
OVCAR-8 ovarian = test system: OVCAR-8 ovarian
SR leukemia = test system: SR leukemia
NCI-H460 lung = test system: NCI-H460 lung
HS 578T breast = test system: HS 578T breast
UACC-257 melanoma = test system: UACC-257 melanoma
K-562 leukemia = test system: K-562 leukemia
EKVX NSCLC = test system: EKVX NSCLC
A549 NSCLC = test system: A549 NSCLC
OVCAR-5 ovarian = test system: OVCAR-5 ovarian
SN12C renal = test system: SN12C renal
SK-MEL-2 melanoma = test system: SK-MEL-2 melanoma
SK-MEL-5 melanoma = test system: SK-MEL-5 melanoma
786-0 renal = test system: 786-0 renal
HCC-2998 colon = test system: HCC-2998 colon
HCT-116 colon = test system: HCT-116 colon

`COc1cc2cnc3c(c2c(OC)c1OC)Cc1cc2c(cc1-3)OCO2` showed a GI50 (MDA-MB-435) of 0.207 µM, a TGI (MDA-MB-435) of 0.446 µM and a GI50 (IGROV1 ovarian) of 2.86 µM. For the same compound, the TGI (IGROV1 ovarian) was > 100 µM, the GI50 (SW-620 colon) was 1.35 µM and the TGI (SW-620 colon) was > 100 µM. For the same compound, the GI50 (RPMI-8226 leukemia) was 0.559 µM, the TGI (RPMI-8226 leukemia) was > 100 µM and the GI50 (SF-295 CNS) was 0.591 µM. The TGI (SF-295 CNS) was > 32.8 µM, the GI50 (MDA-MB-231 breast) was 0.71 µM and the TGI (MDA-MB-231 breast) was > 27.8 µM. The GI50 (M14 melanoma) was 0.55 µM, the TGI (M14 melanoma) was > 55.1 µM and the GI50 (OVCAR-4 ovarian) was > 100 µM. For the same compound, the TGI (OVCAR-4 ovarian) was > 100 µM, the GI50 (HCT-15 colon) was 0.102 µM and the TGI (HCT-15 colon) was > 32.3 µM. For the same compound, the GI50 (NCI-H522 lung) was 0.408 µM, the TGI (NCI-H522 lung) was 3.46 µM and the GI50 (SK-OV-3 ovarian) was 69.3 µM. For the same compound, the TGI (SK-OV-3 ovarian) was > 100 µM, the GI50 (CAKI-1 renal) was 0.256 µM and the TGI (CAKI-1 renal) was 1.76 µM. The GI50 (NCI-H226 lung) was 88.3 µM, the TGI (NCI-H226 lung) was > 100 µM and the GI50 (NCI/ADR-RES ovarian) was 10.8 µM. For the same compound, the TGI (NCI/ADR-RES ovarian) was > 74.8 µM, the GI50 (SK-MEL-28 melanoma) was 42.6 µM and the TGI (SK-MEL-28 melanoma) was > 100 µM. For the same compound, the GI50 (DU-145 prostate) was > 36.1 µM, the TGI (DU-145 prostate) was > 100 µM and the GI50 (HOP-62 NSCLC) was 0.234 µM. For the same compound, the TGI (HOP-62 NSCLC) was 10.9 µM, the GI50 (COLO 205 colon) was 0.743 µM and the TGI (COLO 205 colon) was > 100 µM. The GI50 (NCI-H23 lung) was 2.3 µM, the TGI (NCI-H23 lung) was > 100 µM and the GI50 (U251 CNS) was 0.31 µM. For the same compound, the TGI (U251 CNS) was > 21.8 µM, the GI50 (SF-539 CNS) was 0.869 µM and the TGI (SF-539 CNS) was 12 µM. The GI50 (LOX IMVI melanoma) was 0.0789 µM, the TGI (LOX IMVI melanoma) was > 100 µM and the GI50 (ACHN renal) was 0.243 µM. The TGI (ACHN renal) was > 29.1 µM, the GI50 (SNB-75 CNS) was > 100 µM and the TGI (SNB-75 CNS) was > 100 µM. The GI50 (TK-10 renal) was 0.752 µM, the TGI (TK-10 renal) was 2.9 µM and the GI50 (T-47D breast) was > 100 µM. The TGI (T-47D breast) was > 100 µM, the GI50 (UO-31 renal) was 10.9 µM and the TGI (UO-31 renal) was > 100 µM. For the same compound, the GI50 (SF-268 CNS) was 2.74 µM, the TGI (SF-268 CNS) was > 100 µM and the GI50 (RXF 393 renal) was 10.9 µM. For the same compound, the TGI (RXF 393 renal) was 47.9 µM, the GI50 (KM12 colon) was 0.255 µM and the TGI (KM12 colon) was 0.874 µM. The TGI (HOP-92 NSCLC) was > 28.5 µM, the GI50 (MCF7 breast) was 1.32 µM and the TGI (MCF7 breast) was > 24.8 µM. The GI50 (PC-3 prostate) was 4.49 µM, the TGI (PC-3 prostate) was > 100 µM and the GI50 (UACC-62 melanoma) was 0.204 µM. For the same compound, the TGI (UACC-62 melanoma) was 11.2 µM, the GI50 (SNB-19 CNS) was > 100 µM and the TGI (SNB-19 CNS) was > 100 µM. The TGI (OVCAR-8 ovarian) was > 29.4 µM, the GI50 (SR leukemia) was 0.0491 µM and the TGI (SR leukemia) was 0.305 µM. For the same compound, the GI50 (NCI-H460 lung) was 1.39 µM, the TGI (NCI-H460 lung) was > 100 µM and the GI50 (HS 578T breast) was 2.38 µM. For the same compound, the TGI (HS 578T breast) was > 50.7 µM, the GI50 (UACC-257 melanoma) was 0.99 µM and the TGI (UACC-257 melanoma) was > 100 µM. The GI50 (K-562 leukemia) was 0.156 µM, the TGI (K-562 leukemia) was > 87.9 µM and the GI50 (EKVX NSCLC) was 7.54 µM. The TGI (EKVX NSCLC) was > 100 µM, the GI50 (A549 NSCLC) was 2.64 µM and the TGI (A549 NSCLC) was > 100 µM. The GI50 (OVCAR-5 ovarian) was > 40.8 µM, the TGI (OVCAR-5 ovarian) was > 100 µM and the GI50 (SN12C renal) was 0.602 µM. For the same compound, the TGI (SN12C renal) was > 100 µM, the GI50 (SK-MEL-2 melanoma) was 1.41 µM and the TGI (SK-MEL-2 melanoma) was > 65.1 µM. It also gave a GI50 (SK-MEL-5 melanoma) of 0.682 µM, a TGI (SK-MEL-5 melanoma) of 13.3 µM and a GI50 (786-0 renal) of 3.23 µM. The TGI (786-0 renal) was > 82.5 µM, the GI50 (HCC-2998 colon) was > 100 µM and the TGI (HCC-2998 colon) was > 100 µM. For the same compound, the GI50 (HCT-116 colon) was 0.0694 µM and the TGI (HCT-116 colon) was > 100 µM.
